Earlier results on 2 compounds are cited in patent publication US4927638A, “Etoposide solutions” (Bristol-Myers Company, priority 1988, dated 1990).

Each structure is given as a SMILES string.

For data set [1] the following is noted: with water, ethanol, propylene glycol, isopropyl myristate, diethyl ether, acetone, corn oil, cottonseed oil, etc.
For data set [2] the following is noted: oral (capsules or solution), of that found after intravenous administration; patients.
The conditions of data set [3]: background statement.

With `CO[C@H]1CO[C@H]2[C@@H]1OC[C@H]2OC` [Dimethylisosorbide, dimethylisosorbide], in data set [1], the miscibility result is given as “miscible”.
Take `COc1cc([C@@H]2c3cc4c(cc3[C@@H](O[C@@H]3O[C@@H]5CO[C@@H](C)O[C@H]5[C@H](O)[C@H]3O)[C@H]3COC(=O)[C@H]23)OCO4)cc(OC)c1O` [Etoposide, 4'-demethylepipodophyllotoxin-9-(4,6-O(R)-ethylidine-β-D-glucopyranoside)]: in data set [2], the oral bioavailability result is reported as “about 50%”. For the same compound, in data set [3], the “solubility in water” value is “only sparingly soluble”.
